Test results published in US9962398B2, “Sulfonamide compounds for inhibition of metastatic tumor growth” (Welichem Biotech Inc., priority 2010, dated 2018).
Read-outs that look alike come from different tables or passages of the source.

Legend:
[1] = test system: MDA-MB-231 LM2-4Luc+ cells; conditions: in vivo
From the text: For studies involving CAIX depletion, 1×10^7 MDA-MB-231 cells suspended in a 50% Matrigel/PBS solution were implanted subcutaneously in 6-8 week-old female NOD.CB17-prkdc^scid/J mice. […] Therapy was initiated when the tumors reached 200 mm^3. For both models, tumor growth was monitored by caliper measurement.
The initiation and termination of inhibitor treatment is indicated. n=8/group. *P<0.03, **P<0.001.

4T1 mammary tumor cells = assay: Experimental metastasis assay, intravenous 4T1 cells, bioluminescence; type: in vivo, mouse; conditions: tail vein 4T1 cells, BALB/c mice, daily i.p. for 5 days, imaged 24 h after final dose
Method: For studies involving genetic depletion of CAIX, 4T1 or 67NR cells (5×10^5) were injected directly into the tail vein of 7-9 week-old female BALB/c mice. Mice were imaged once per week to follow the growth of metastases. Mice were euthanized 20 days post-injection and lungs were resected for further analysis. Tumor burden in the lung was quantified by manually counting nodules visible on the lung surface. For studies using sulphonamide inhibitors, 4T1 cells (1-5×10^5) were injected as described above (Pacchiano et al, (2011) J Med Chem 54:1896-1902).
Animals were treated 24 hours post inoculation of cells. Three doses were administered by i.p. injection over 6 days and the mice were imaged 24 hours following the third dose of inhibitor. […] Quantification of tumor-derived bioluminescence is shown in 12C. Regions of interest were positioned around metastatic foci and total flux (photons/sec) at the mouse surface was calculated. Data are reported as the mean±s.e.m. N=4 per group. *P<0.05.
4T1 cells were injected directly into the tail vein of BALB/c mice. […] Vehicle and inhibitor were administered by i.p. injection. Shown are representative images of tumor-cell derived bioluminescence in control and inhibitor-treated animals.

MDA-231 LM2-4 Luc+ cells = assay: 3D Matrigel invasion assay in hypoxia; type: cell-based, human; conditions: 4 days in hypoxia
Method: A 3D “on-top” matrigel culture assay was performed as described previously (Lee et al, (2007) Nat Methods 4:359-365). […] Cells were allowed to attach for 45 minutes with side-to-side agitation every 10-15 minutes to prevent clumping of cells in the center of the well. An additional 100 μl/well media containing 10% matrigel was added to the cells and cultures were incubated in hypoxia for 4 days. Images were acquired and cultures were fixed for TUNEL using the “whole culture fixation” methodology outlined in Lee et al, (2007) Nat Methods 4:359-365).
Treatment with novel sulfonamide inhibitors of CAIX attenuates hypoxia-induced invasion of human breast cancer cells grown in 3D Matrigel™ cultures (FIG. 16). Cells were cultured in 3D “on-top” Matrigel™ assays for 4 days in hypoxia in the presence of inhibitors. DMSO-treated cell cultures served as controls. The percentage concentration of DMSO and molar concentration of inhibitors are indicated. Representative phase contrast images are shown.

[2] = test system: MDA-MB-231 LM2-4luc+ tumors; assay: ESA+ cancer stem cell population in orthotopic xenograft tumors (FACS); type: in vivo, human; conditions: NOD/SCID mice, 38 mg/kg daily i.p., vs vehicle-treated tumors
From the text: MDA-MB-231 LM2-4^luc+ were implanted orthotopically into NOD/SCID mice. […] (A) Primary tumors were removed, dissociated and ESA+ cell population assessed by FACS analysis. […] (B) Data shown are the mean changes in ESA+ cells±SEM, from 3 mice. **P<0.0224.

hCA IX [3] = target: T1, hCA IX (Homo sapiens (Human), UniProt Q16790); assay: biochemical
hCA IX [4] = target: T1, hCA IX; conditions: read-out: Ki (nM) hCA IX; Table 3
hCA II = hCA II (Homo sapiens (Human), UniProt P00918); conditions: read-out: Ki (nM) hCA II; Table 3
hCA XII = hCA XII (Homo sapiens (Human), UniProt O43570); conditions: read-out: Ki (nM) hCA XII; Table 3
Chain of hCA XII (O43570 25-354): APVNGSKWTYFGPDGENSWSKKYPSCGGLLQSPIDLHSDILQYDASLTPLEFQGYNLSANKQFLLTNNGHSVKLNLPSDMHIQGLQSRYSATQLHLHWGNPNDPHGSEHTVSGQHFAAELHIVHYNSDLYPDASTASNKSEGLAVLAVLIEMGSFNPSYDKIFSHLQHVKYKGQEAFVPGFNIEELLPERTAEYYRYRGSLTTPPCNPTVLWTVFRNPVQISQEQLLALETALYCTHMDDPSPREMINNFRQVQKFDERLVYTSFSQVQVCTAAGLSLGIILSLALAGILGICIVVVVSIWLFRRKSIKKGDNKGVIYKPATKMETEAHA

With `NS(=O)(=O)c1ccc(NC(=O)Nc2ccc(F)cc2)cc1` [MST-104, 4-{[(4′-Fluorophenyl)carbamoyl]amino}benzenesulfonamide] the tumor growth [1] was “significant, dose-dependent inhibition of tumor growth”, the “formation of metastases (tumor-derived bioluminescence)” value (4T1 mammary tumor cells) was “statistically significant decrease in the formation of metastases” and the hypoxia-induced invasion (MDA-231 LM2-4 Luc+ cells) was “inhibit invasion”. The “ESA+ cell population” value [2] was “significantly reduced ESA+ cell population”.

Work on `NS(=O)(=O)c1cccc(NC(=O)Nc2c(F)c(F)c(F)c(F)c2F)c1` [MST-133, 3-(3-(Perfluorophenyl)ureido)benzenesulfonamide] yielded a Ki (hCA IX [3]) of 4.2 nM.

In the case of `NS(=O)(=O)c1ccc(NC(=O)Nc2cccc(Cl)c2)cc1` [MST-143, 4-(3-(3′-chlorophenyl)ureido)benzenesulfonamide], the Ki (hCA IX [4]) is reported as 8.4 nM, the Ki (hCA II) is reported as 10 nM and the Ki (hCA XII) is reported as 8.5 nM.
